Molecules are shown by their SMILES. Active and inactive are the calls of the source. No rule for the calls is given here.

The test system of this data set is GENE-TOX genotoxicity assays, various organisms and cells. Put plainly: GENE-TOX mutagenicity studies. Conditions: for call: Assay Type: In vivo carcinogenicity studies.
Where [1] appears, read: Species/Cell Type: Drosophila melanogaster, Assay Type: Sex-linked recessive lethal gene mutation, Assay Code: SRLT, Evaluation Type: Evaluation A (Pre-1980).
The mark [2] stands for this setting: Species/Cell Type: Human diploid fibroblasts, Assay Type: Unscheduled DNA synthesis (UDS) in vitro, DNA effects, Assay Code: UDH-, Evaluation Type: Evaluation A (Pre-1980).
Setting [3] is: Species/Cell Type: Salmonella typhimurium (one or more of the five standard strains: TA98, TA100, TA1535, TA1537, and TA1538), Assay Type: Histidine reverse gene mutation, Ames assay, Assay Code: SALT, Evaluation Type: Evaluation A (Pre-1980).
Where [4] appears, read: Species/Cell Type: Nonhuman, Assay Code: CCGT, Evaluation Type: Evaluation A (Pre-1980).
Setting [5] is: Species/Cell Type: Salmonella typhimurium (one or more of the five standard strains: TA98, TA100, TA1535, TA1537, and TA1538), Assay Type: Histidine reverse gene mutation, Ames assay, Assay Code: SAL+, Evaluation Type: Evaluation A (Pre-1980).
Setting [6] is: Species/Cell Type: Nonhuman, Assay Code: CCG+, Evaluation Type: Evaluation A (Pre-1980).
Where [7] appears, read: Species/Cell Type: Drosophila melanogaster, Assay Type: Sex-linked recessive lethal gene mutation, Assay Code: SRL+, Evaluation Type: Evaluation A (Pre-1980).
Where [8] appears, read: Species/Cell Type: Human lymphocytes, Assay Type: Sister-chromatid exchange (SCE) in vitro, Assay Code: SCLT, Evaluation Type: Evaluation B (Post-1980).
Where [9] appears, read: Species/Cell Type: Human, Assay Type: Sister-chromatid exchange (SCE) in vitro, Assay Code: SC1T, Evaluation Type: Evaluation B (Post-1980).
[10] abbreviates: Species/Cell Type: Nonhuman, Assay Type: Sister-chromatid exchange (SCE) in vitro, Assay Code: SC2+D, Dose Response: With dose response, Evaluation Type: Evaluation B (Post-1980).

On to `ClC1=C(Cl)[C@]2(Cl)[C@@H]3[C@H]4C[C@H]([C@@H]5O[C@H]45)[C@@H]3[C@@]1(Cl)C2(Cl)Cl`, for which the mutagenic call under setting [1] was “no conclusion”; the mutagenic call (Species/Cell Type: Hordeum vulgare (barley), Assay Type: Chromosome aberrations, Assay Code: HOCT, Evaluation Type: Evaluation A (Pre-1980)) is “no conclusion”; the mutagenic call under setting [2] is “inactive; negative”; the mutagenic call (Species/Cell Type: Saccharomyces cerevisiae, Assay Type: Mitotic recombination or gene conversion, Assay Code: YEH-, Evaluation Type: Evaluation A (Pre-1980)) is “inactive; negative”; the mutagenic call (Species/Cell Type: Salmonella typhimurium (one or more of the five standard strains: TA98, TA100, TA1535, TA1537, and TA1538), Assay Type: Histidine reverse gene mutation, Ames assay, Assay Code: SAL-, Evaluation Type: Evaluation A (Pre-1980)) is “inactive; negative”; the mutagenic call (Species/Cell Type: Vicia faba, Assay Type: Chromosome aberrations, Assay Code: VIC+D, Dose Response: With dose response, Evaluation Type: Evaluation A (Pre-1980)) was “active; positive”. Further, for the setting “Species/Cell Type: Nonhuman, Assay Code: CCG-L, Evaluation Type: Evaluation A (Pre-1980)”, the call is “inactive; negative”.

As to `[Cl][Cr]([Cl])[Cl]`, the mutagenic call was “inactive; negative” (Species/Cell Type: Bacillus subtilis (H17 vs M45), Assay Type: Rec-assay, spot test, DNA effects (bacterial DNA repair), Assay Code: REW-, Evaluation Type: Evaluation A (Pre-1980)); “inactive; negative” (Species/Cell Type: Human lymphocytes, Assay Type: Sister-chromatid exchange (SCE) in vitro, Assay Code: SCL-, Evaluation Type: Evaluation B (Post-1980)); “inactive; negative” (Species/Cell Type: Human, Assay Type: Sister-chromatid exchange (SCE) in vitro, Assay Code: SC1-, Evaluation Type: Evaluation B (Post-1980)); “inactive; negative” (Species/Cell Type: Mammalian oocytes or early embryo, Assay Type: Chromosome aberrations in vivo, Assay Code: CYO-, Evaluation Type: Evaluation A (Pre-1980)); “active; positive” (Species/Cell Type: Nonhuman, Assay Type: Sister-chromatid exchange (SCE) in vitro, Assay Code: SC2+, Evaluation Type: Evaluation B (Post-1980)); “no conclusion” (Species/Cell Type: Nonhuman, Assay Type: Sister-chromatid exchange (SCE) in vitro, Assay Code: SC2T, Evaluation Type: Evaluation B (Post-1980)). The mutagenic call under setting [3] is recorded as “no conclusion”.

Regarding `CCC1CO1` (stereo not drawn), the mutagenic call reads like this: (Species/Cell Type: Escherichia coli polA (W3110 vs P3478), Assay Type: Rec-assay, DNA effects (bacterial DNA repair), Assay Code: RE2+, Evaluation Type: Evaluation A (Pre-1980)) “active; positive”; (Species/Cell Type: Escherichia coli polA (W3119 vs P3478), Assay Type: Rec-assay, DNA effects (bacterial DNA repair), Assay Code: RE1+, Evaluation Type: Evaluation A (Pre-1980)) “active; positive”; (Species/Cell Type: Fischer rat embryo (RLV/1706) cells, Assay Type: Cell transformation, viral enhanced, Assay Code: CTR+, Evaluation Type: Evaluation A (Pre-1980)) “active; positive”; (Species/Cell Type: Mouse (BALB/c-3T3) cells, Assay Type: Cell transformation, Assay Code: CTB-, Evaluation Type: Evaluation A (Pre-1980)) “inactive; negative”; (Species/Cell Type: Neurospora crassa, Assay Type: Reverse gene mutation, Assay Code: NER+, Evaluation Type: Evaluation A (Pre-1980)) “active; positive”; (Species/Cell Type: Saccharomyces cerevisiae, Assay Type: Mitotic recombination or gene conversion, Assay Code: YEH+, Evaluation Type: Evaluation A (Pre-1980)) “active; positive”. Moreover, the mutagenic call runs as follows: under setting [5], “active; positive”; (Species/Cell Type: Syrian hamster embryo (SHE) cells, Assay Type: Cell transformation, clonal assay, Assay Code: CTC+, Evaluation Type: Evaluation A (Pre-1980)) “active; positive”. The call under setting [4] is on record as “no conclusion”.

For `CCCN(CCC)N=O`, the mutagenic call (Species/Cell Type: Chinese hamster lung (V79) cells, Assay Type: Forward gene mutation at the HPRT or ouabain locus, Assay Code: V79+, Evaluation Type: Evaluation A (Pre-1980)) is “active; positive”; the mutagenic call (Species/Cell Type: Human diploid fibroblasts, Assay Type: Unscheduled DNA synthesis (UDS) in vitro, DNA effects, Assay Code: UDHT, Evaluation Type: Evaluation A (Pre-1980)) is on record as “no conclusion”; the mutagenic call (Species/Cell Type: Nonhuman, Assay Type: Sister-chromatid exchange (SCE) in vivo, Assay Code: SC3+, Evaluation Type: Evaluation B (Post-1980)) was “active; positive”; the mutagenic call (Species/Cell Type: Salmonella typhimurium (one or more of the five standard strains: TA98, TA100, TA1535, TA1537, and TA1538), Assay Type: Histidine reverse gene mutation, Ames assay, Assay Code: SAL+*, Activation: With metabolic activation, Evaluation Type: Evaluation A (Pre-1980)) was “active; positive”; the mutagenic call (Species/Cell Type: Syrian hamster embryo (SA7/SHE) cells, Assay Type: Cell transformation, viral enhanced, Assay Code: CT7+, Evaluation Type: Evaluation A (Pre-1980)) was “active; positive”. In addition, the call under setting [6] was “active; positive”.

For the molecule `O=C1c2ccccc2C(=O)N1CC1CO1` (stereo not drawn), the mutagenic call (Species/Cell Type: Chinese hamster ovary (CHO) cells, Assay Type: Forward gene mutation at the HPRT locus, Assay Code: CHO+, Evaluation Type: Evaluation B (Post-1980)) was “active; positive”.

With `Cc1cc(Cc2ccc(N)c(C)c2)ccc1N`, the call under setting [6] is “active; positive”.

Consider `CC(C)NP(=O)(N1CC1)N1CC1`, for which the mutagenic call under setting [7] is “active; positive” and the mutagenic call (Species/Cell Type: Nonhuman, Assay Type: Chromosome aberrations in vitro, Assay Code: CY&+, Evaluation Type: Evaluation A (Pre-1980)) was “active; positive”.

In the case of `OC(O)C(F)(F)F`, the mutagenic call under setting [3] is reported as “no conclusion”.

On to `Cc1c2ccccc2c(C)c2c1c(O)c(O)c1ccccc12`, for which the mutagenic call (Species/Cell Type: Chinese hamster lung (V79) cells, Assay Type: Forward gene mutation at the HPRT or ouabain locus, Assay Code: V79-*, Activation: With metabolic activation, Evaluation Type: Evaluation A (Pre-1980)) is “inactive; negative”. Also, the call under setting [4] was “no conclusion”.

For the molecule `CC1=CC(=C(c2ccc(N)c(S(=O)(=O)O)c2)c2ccc(N)c(S(=O)(=O)O)c2)C=C(S(=O)(=O)O)C1=N`, the mutagenic call (Species/Cell Type: Bacillus subtilis (H17 vs M45), Assay Type: Rec-assay, spot test, DNA effects (bacterial DNA repair), Assay Code: REWT, Evaluation Type: Evaluation A (Pre-1980)) was “no conclusion”.

Consider `Cc1nc(NO)cc2[nH]c3ccccc3c12`, for which the mutagenic call reads like this: (Species/Cell Type: Human lymphocytes, Assay Type: Sister-chromatid exchange (SCE) in vitro, Assay Code: SCL+D, Dose Response: With dose response, Evaluation Type: Evaluation B (Post-1980)) “active; positive”; (Species/Cell Type: Human, Assay Type: Sister-chromatid exchange (SCE) in vitro, Assay Code: SC1+D, Dose Response: With dose response, Evaluation Type: Evaluation B (Post-1980)) “active; positive”.

Turning to `CCC1CCCCN1CCNc1ccc(CO)c2sc3ccccc3c(=O)c12` (stereo not drawn), the mutagenic call (Species/Cell Type: Mouse lymphoma (L5178Y) cells, Assay Type: Forward gene mutation at the thymidine kinase (TK) locus, chromosome aberrations, Assay Code: L51+, Evaluation Type: Evaluation A (Pre-1980)) was “active; positive”.

Turning to `N=C(N)SCCN`, the mutagenic call reads like this: (Species/Cell Type: Human lymphocytes, Assay Type: Sister-chromatid exchange (SCE) in vitro, Assay Code: SCL+, Evaluation Type: Evaluation B (Post-1980)) “active; positive”; under setting [8], “no conclusion”; (Species/Cell Type: Human, Assay Type: Sister-chromatid exchange (SCE) in vitro, Assay Code: SC1+, Evaluation Type: Evaluation B (Post-1980)) “active; positive”; under setting [9], “no conclusion”.

As to `CC(=O)NCc1nc(-c2ccc([N+](=O)[O-])o2)no1`, the mutagenic call under setting [5] was “active; positive”.

On to `CCN(N=O)C(=O)Nc1ccccc1`, for which the mutagenic call under setting [10] is “active; positive”.

With `[Cl][Ti]([Cl])[Cl]`, the mutagenic call (Species/Cell Type: Nonhuman, Assay Type: Sister-chromatid exchange (SCE) in vitro, Assay Code: SC2-, Evaluation Type: Evaluation B (Post-1980)) was “inactive; negative”.

With `CCCCCc1cc(OC(=O)CCCN2CCOCC2)c2c(c1)OC(C)(C)[C@@H]1CCC(C)=C[C@@H]21`, the mutagenic call under setting [2] was “inactive; negative”.

On to `ONC1CCCCC1`, for which the mutagenic call reads like this: under setting [1], “no conclusion”; (Species/Cell Type: Drosophila melanogaster, Sex: Male, Assay Type: Heritable translocation test, chromosome aberrations, Assay Code: DHTT, Evaluation Type: Evaluation A (Pre-1980)) “no conclusion”; (Species/Cell Type: Human lymphocytes or leukocytes, Assay Type: Chromosome aberrations in vitro, Assay Code: CY7-, Evaluation Type: Evaluation A (Pre-1980)) “inactive; negative”.

In the case of `CNC(N)=O`, the mutagenic call by setting is: under setting [8], “no conclusion”; under setting [9], “no conclusion”; (Species/Cell Type: Salmonella typhimurium, Assay Type: Forward and reverse gene mutation, host-mediated assay, Assay Code: HMA+, Evaluation Type: Evaluation A (Pre-1980)) “active; positive”.

Consider `CN(N=O)C(=O)Nc1ccc(F)cc1`, for which, under setting [10], the mutagenic call was “active; positive”.

With `[Cl-].[Cl-].[NH2-].[NH2-].[NH2-].[NH2-].[Pt+2]`, the mutagenic call (Species/Cell Type: Chinese hamster ovary (CHO) cells, Assay Type: Forward gene mutation at the HPRT locus, Assay Code: CHOT, Evaluation Type: Evaluation B (Post-1980)) is “no conclusion”.

`COP(=O)(Oc1cc(Cl)c(Br)cc1Cl)c1ccccc1` (stereo not drawn): the mutagenic call under setting [10] was “active; positive”.

Take `CN(C)c1nc(N(C)C)nc(N(C)C)n1`: under setting [7], the mutagenic call is “active; positive”.

The values above are taken from PubChem BioAssay AID1259408 (Genetic Toxicology Data Bank (GENE-TOX), 2018).
